Consider 51 compounds from US20080119515A1, “Heterocyclic Kinase Inhibitors: Methods of Use and Synthesis” (priority 2003, published 2008).

Some results are limits rather than exact numbers.

In this assay the target is T1, ZAP-70 (Homo sapiens, UniProt P43403).
T1 sequence (P43403 1-619): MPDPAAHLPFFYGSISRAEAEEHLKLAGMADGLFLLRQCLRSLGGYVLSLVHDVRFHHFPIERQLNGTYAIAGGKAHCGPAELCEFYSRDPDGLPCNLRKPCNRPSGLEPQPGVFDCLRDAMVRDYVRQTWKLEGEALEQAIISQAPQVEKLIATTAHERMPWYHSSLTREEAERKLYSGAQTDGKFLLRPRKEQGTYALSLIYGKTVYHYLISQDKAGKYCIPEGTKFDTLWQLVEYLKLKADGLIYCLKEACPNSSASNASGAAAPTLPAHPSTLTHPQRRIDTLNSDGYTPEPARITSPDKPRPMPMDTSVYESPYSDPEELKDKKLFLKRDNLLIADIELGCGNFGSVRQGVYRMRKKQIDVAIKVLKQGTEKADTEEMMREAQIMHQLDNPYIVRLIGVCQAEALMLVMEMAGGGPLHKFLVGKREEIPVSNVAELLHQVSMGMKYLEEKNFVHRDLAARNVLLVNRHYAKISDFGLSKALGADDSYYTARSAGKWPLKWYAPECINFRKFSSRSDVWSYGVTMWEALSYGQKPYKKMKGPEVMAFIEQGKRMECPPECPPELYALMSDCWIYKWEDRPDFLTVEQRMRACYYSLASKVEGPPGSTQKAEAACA
Briefly: DELFIA assay (ZAP-70 kinase, phosphorylation of biotinylated poly(glu,tyr)). Format: biochemical. The settings on record: ZAP-70 DELFIA, class symbols; read-out: Activity (IC50 in vitro). As to the method:
Before initiation of kinase reactions, compounds were pre-incubated with ZAP-70. Pre-incubation reactions contained 62.5 mM Mops pH 7.0, 12.5 mM MgCl2, 12.5% glycerol, 3.1 nM ZAP-70, 62.5 nM biotinylated poly(glu,Tyr), 0.1 mg/ml BSA, 6.25% DMSO and […] compound in a total volume of […]. After a 10 minute room temperature incubation, 10 ml of 5 mM ATP was added to start the reaction. Reactions were incubated at room temperature for 30 minutes then terminated by addition of 5 ml 500 mM EDTA. The amount of phosphate transferred to biotinylated poly(glu,tyr) was measured using the Dissociation Enhanced Lanthanide Fluorescence Immuno-assay (DELFIA) from Perkin Elmer according to manufacturers protocol. Briefly, biotinylated […] was captured on streptavidin coated plates, washed twice, then incubated with Europium labeled-anti-phosphotyrosine antibody. Free antibody was removed with six washes, Europium was dissociated from the antibody, and Europium fluorescence was measured at using an excitation wavelength of 340 nm and an emission wavelength of 615 nm.
For the compound `CC(CNc1cc(C(=O)N2CCC[C@H]2CN2CCCC2)c2cc(-c3ccc4c(c3)OCO4)ccc2n1)c1ccccc1` (stereo partly drawn) [Compound 54], the IC50 was under 1000 nM.

On to `O=C(c1cc(NCC(O)c2ccccc2)nc2ccc(-c3ccc4c(c3)OCO4)cc12)N1CCC[C@H]1CN1CCCC1` (stereo partly drawn) [Compound 55], for which the IC50 was under 1000 nM.

On to `O=C(c1cc(Nc2ccc3ncsc3c2)nc2ccc(-c3ccc4c(c3)OCO4)cc12)N1CCC[C@H]1CN1CCCC1` [Compound 56], for which the IC50 is under 1000 nM.

For the compound `O=C(c1cc(Nc2ccc3cn[nH]c3c2)nc2ccc(-c3ccc4c(c3)OCO4)cc12)N1CCC[C@H]1CN1CCCC1` [Compound 57], the 50% inhibitory concentration (IC50) is under 1000 nM.

With `CC(=O)N1CCN(c2cc(C(=O)N3CCC[C@H]3CN3CCCC3)c3cc(-c4ccc5c(c4)OCO5)ccc3n2)CC1` [Compound 58], the IC50 was 1000 to 10000 nM.

Turning to `CN(C)c1cc(C(=O)N2CCC[C@H]2CN2CCCC2)c2cc(-c3ccc4c(c3)OCO4)ccc2n1` [Compound 59], the IC50 lay within 1000 to 10000 nM.

As to `CN1CCC(N(C)c2cc(C(=O)N3CCC[C@H]3CN3CCCC3)c3cc(-c4ccc5c(c4)OCO5)ccc3n2)CC1` [Compound 60], the IC50 was under 1000 nM.

As to `CN1CCN(c2cc(C(=O)N3CCC[C@H]3CN3CCCC3)c3cc(-c4ccc5c(c4)OCO5)ccc3n2)CC1` [Compound 61], the 50% inhibitory concentration (IC50) lay within 1000 to 10000 nM.

Consider `O=C(c1cc(N2CCOCC2)nc2ccc(-c3ccc4c(c3)OCO4)cc12)N1CCC[C@H]1CN1CCCC1` [Compound 62], for which the IC50 was 1000 to 10000 nM.

As to `O=C(c1cc(N2CCCC2)nc2ccc(-c3ccc4c(c3)OCO4)cc12)N1CCC[C@H]1CN1CCCC1` [Compound 63], the IC50 was in the range of 1000 to 10000 nM.

Regarding `O=C(c1cc(N2CCC(N3CCCC3)CC2)nc2ccc(-c3ccc4c(c3)OCO4)cc12)N1CCC[C@H]1CN1CCCC1` [Compound 64], the IC50 was 1000 to 10000 nM.

In the case of `O=C(c1cc(N2CCc3ccccc3C2)nc2ccc(-c3ccc4c(c3)OCO4)cc12)N1CCC[C@H]1CN1CCCC1` [Compound 65], the IC50 was under 1000 nM.

In the case of `CN(CCC#N)c1cc(C(=O)N2CCC[C@H]2CN2CCCC2)c2cc(-c3ccc4c(c3)OCO4)ccc2n1` [Compound 66], the IC50 lay within 1000 to 10000 nM.

As to `CN(C)CCN(C)c1cc(C(=O)N2CCC[C@H]2CN2CCCC2)c2cc(-c3ccc4c(c3)OCO4)ccc2n1` [Compound 67], the IC50 is over 10000 nM.

Consider `CCN(Cc1ccccc1)c1cc(C(=O)N2CCC[C@H]2CN2CCCC2)c2cc(-c3ccc4c(c3)OCO4)ccc2n1` [Compound 68], for which the IC50 is under 1000 nM.

As to `CC(=O)N[C@H]1CCN(c2cc(C(=O)N3CCC[C@H]3CN3CCCC3)c3cc(-c4ccc5c(c4)OCO5)ccc3n2)C1` [Compound 69], the IC50 was over 10000 nM.

As for `CN(c1cc(C(=O)N2CCC[C@H]2CN2CCCC2)c2cc(-c3ccc4c(c3)OCO4)ccc2n1)C1CCCCC1` [Compound 70], the IC50 is under 1000 nM.

`CC(=O)NCCNc1cc(C(=O)N2CCC[C@H]2CN2CCCC2)c2cc(-c3ccc4c(c3)OCO4)ccc2n1` [Compound 71]: the IC50 was over 10000 nM.

With `CCN(CCOC)c1cc(C(=O)N2CCC[C@H]2CN2CCCC2)c2cc(-c3ccc4c(c3)OCO4)ccc2n1` [Compound 72], the IC50 fell in the range of 1000 to 10000 nM.

Turning to `COCCN1CCN(c2cc(C(=O)N3CCC[C@H]3CN3CCCC3)c3cc(-c4ccc5c(c4)OCO5)ccc3n2)CC1` [Compound 73], the IC50 fell in the range of 1000 to 10000 nM.

For the compound `CN(CCO)c1cc(C(=O)N2CCC[C@H]2CN2CCCC2)c2cc(-c3ccc4c(c3)OCO4)ccc2n1` [Compound 74], the IC50 was 1000 to 10000 nM.

As for `CN(C)[C@@H]1CCN(c2cc(C(=O)N3CCC[C@H]3CN3CCCC3)c3cc(-c4ccc5c(c4)OCO5)ccc3n2)C1` [Compound 75], the IC50 lay within 1000 to 10000 nM.

On to `O=C(c1cc(N(CCO)Cc2ccccc2)nc2ccc(-c3ccc4c(c3)OCO4)cc12)N1CCC[C@H]1CN1CCCC1` [Compound 76], for which the IC50 was under 1000 nM.

As to `CN(Cc1ccc(Cl)c(Cl)c1)c1cc(C(=O)N2CCC[C@H]2CN2CCCC2)c2cc(-c3ccc4c(c3)OCO4)ccc2n1` [Compound 77], the IC50 is under 1000 nM.

As for `CN(c1ccccn1)c1cc(C(=O)N2CCC[C@H]2CN2CCCC2)c2cc(-c3ccc4c(c3)OCO4)ccc2n1` [Compound 78], the concentration for half-maximal inhibition (IC50) lay within 1000 to 10000 nM.

As to `O=C(c1cc(N2CCN(C3CCCC3)CC2)nc2ccc(-c3ccc4c(c3)OCO4)cc12)N1CCC[C@H]1CN1CCCC1` [Compound 79], the IC50 lay within 1000 to 10000 nM.

`O=C(c1cc(NCc2ccccc2)nc2ccc(-c3ccc4c(c3)OCO4)cc12)N1CCC[C@H]1CO` [Compound 80]: the IC50 was over 10000 nM.

`CCN(CC)C[C@@H]1CCCN1C(=O)c1cc(NCc2ccccc2)nc2ccc(-c3ccc4c(c3)OCO4)cc12` [Compound 81]: the IC50 was in the range of 1000 to 10000 nM.

On to `O=C(c1cc(NCc2ccccc2)nc2ccc(-c3ccc4c(c3)OCO4)cc12)N1CCC[C@H]1CN1CCCCC1` [Compound 82], for which the IC50 is 1000 to 10000 nM.

Take `O=C(c1cc(NCc2ccccc2)nc2ccc(-c3ccc4c(c3)OCO4)cc12)N1CCC[C@H]1CN1CCOCC1` [Compound 83]: the IC50 was in the range of 1000 to 10000 nM.

Consider `CC(C)N(C)C[C@@H]1CCCN1C(=O)c1cc(NCc2ccccc2)nc2ccc(-c3ccc4c(c3)OCO4)cc12` [Compound 84], for which the IC50 is over 10000 nM.

As for `O=C(Nc1ccc2cn[nH]c2c1)c1cc(NCc2ccccc2)nc2ccc(-c3ccc4c(c3)OCO4)cc12` [Compound 85], the IC50 is 1000 to 10000 nM.

Take `O=C(Nc1ccc2[nH]ncc2c1)c1cc(NCc2ccccc2)nc2ccc(-c3ccc4c(c3)OCO4)cc12` [Compound 86]: the IC50 lay in the range of 1000 to 10000 nM.

Take `O=C(Nc1ccc2cn[nH]c2c1)c1cc(NCc2ccc(C(F)(F)F)cc2)nc2ccc(-c3ccc4c(c3)OCO4)cc12` [Compound 87]: the IC50 was over 10000 nM.

Turning to `O=C(Nc1ccc2[nH]ncc2c1)c1cc(NCc2ccc(C(F)(F)F)cc2)nc2ccc(-c3ccc4c(c3)OCO4)cc12` [Compound 88], the IC50 is over 10000 nM.

In the case of `O=C(c1cc(N2CCC[C@H]2CN2CCCC2)nc2ccc(-c3ccc4c(c3)OCO4)cc12)N1CCC[C@H]1CN1CCCC1` [Compound 89], the IC50 is 1000 to 10000 nM.

With `O=C(c1cc(N2CCC(O)CC2)nc2ccc(-c3ccc4c(c3)OCO4)cc12)N1CCC[C@H]1CN1CCCC1` [Compound 90], the IC50 lay in the range of 1000 to 10000 nM.

In the case of `O=C(c1cc(N2CCC[C@@H]2CO)nc2ccc(-c3ccc4c(c3)OCO4)cc12)N1CCC[C@H]1CN1CCCC1` [Compound 91], the IC50 was under 1000 nM.

Take `O=C(c1cc(N2CCCc3ccccc32)nc2ccc(-c3ccc4c(c3)OCO4)cc12)N1CCC[C@H]1CN1CCCC1` [Compound 92]: the IC50 was under 1000 nM.

With `Clc1cc(CN2CCC[C@H]2CN2CCCC2)c2cc(-c3ccc4c(c3)OCO4)ccc2n1` [Compound 93], the IC50 was over 10000 nM.

Turning to `FC(F)(F)c1ccc(CNc2cc(CN3CCC[C@H]3CN3CCCC3)c3cc(-c4ccc5c(c4)OCO5)ccc3n2)cc1` [Compound 94], the IC50 fell in the range of 1000 to 10000 nM.

As to `O=C(c1cc(-c2ccc(F)c(Cl)c2)nc2ccc(-c3ccc(F)c(Cl)c3)cc12)N1CCC[C@H]1CN1CCCC1` [Compound 95], the IC50 fell in the range of 1000 to 10000 nM.

`N#Cc1cccc(-c2ccc3nc(-c4cccc(C#N)c4)cc(C(=O)N4CCC[C@H]4CN4CCCC4)c3c2)c1` [Compound 96]: the concentration for half-maximal inhibition (IC50) was 1000 to 10000 nM.

Turning to `O=C(c1cc(-c2ccc(Cl)c(Cl)c2)nc2ccc(-c3ccc(Cl)c(Cl)c3)cc12)N1CCC[C@H]1CN1CCCC1` [Compound 97], the IC50 lay in the range of 1000 to 10000 nM.

Consider `O=C(c1cc(OCc2ccc(C(F)(F)F)cc2)nc2ccc(-c3ccc4c(c3)OCO4)cc12)N1CCC[C@H]1CN1CCCC1` [Compound 98], for which the IC50 was under 1000 nM.

`O=C(c1cc(OCc2ccc(Cl)cc2)nc2ccc(-c3ccc4c(c3)OCO4)cc12)N1CCC[C@H]1CN1CCCC1` [Compound 99]: the IC50 is under 1000 nM.

For `Clc1cc(N2CCC[C@H]2CN2CCCC2)c2cc(-c3ccc4c(c3)OCO4)ccc2n1` [Compound 100], the IC50 is over 10000 nM.

Regarding `Clc1cc(N2CCC[C@H]2CN2CCCC2)nc2ccc(-c3ccc4c(c3)OCO4)cc12` [Compound 101], the IC50 lay within 1000 to 10000 nM.

As for `O=C(Nc1cc(C(=O)N2CCC[C@H]2CN2CCCC2)c2cc(-c3ccc4c(c3)OCO4)ccc2n1)c1ccc(C(F)(F)F)cc1` [Compound 102], the IC50 was 1000 to 10000 nM.

For `FC(F)(F)c1ccc(CNc2cc(N3CCC[C@H]3CN3CCCC3)c3cc(-c4ccc5c(c4)OCO5)ccc3n2)cc1` [Compound 103], the IC50 lay in the range of 1000 to 10000 nM.

Regarding `FC(F)(F)c1ccc(CNc2cc(N3CCC[C@H]3CN3CCCC3)nc3ccc(-c4ccc5c(c4)OCO5)cc23)cc1` [Compound 104], the IC50 lay in the range of 1000 to 10000 nM.

What is called IC50 is the midpoint of a concentration-inhibition curve.
